The record followed here is the NIST ThermoML archive (doi:10.1016/j.fluid.2014.11.020).

± gives the expanded uncertainty stated by the source.

The series can be described thus: activity coefficient (dimensionless); of the first substance listed, at infinite dilution; xn = mol fraction of the nth substance listed. To be noted: Liquid, Chromatography, x1 = 0.

Consider `C[N+](=O)[O-]` [nitromethane] + CCCOC[n+]1ccn(C)c1.F[B-](F)(F)F, for which the activity coefficient by setting is: (323.15 K) 0.65 ± 0.04; (333.15 K) 0.66 ± 0.05; (343.15 K) 0.67 ± 0.05.
On the same counts, the results for `Cc1ccccc1` [toluene] + CCCOC[n+]1ccn(Cc2ccccc2)c1.N#C[N-]C#N are 2.29 ± 0.16, 2.26 ± 0.15 and 2.25 ± 0.15.
For `CC#N` [acetonitrile] + Cn1cc[n+](COCCCOC[n+]2ccn(C)c2)c1.O=S(=O)([N-]S(=O)(=O)C(F)(F)F)C(F)(F)F.O=S(=O)([N-]S(=O)(=O)C(F)(F)F)C(F)(F)F, in that order: 0.28 ± 0.03, 0.28 ± 0.03 and 0.24 ± 0.03.
For `CCC(=O)CC` [pentan-3-one] + CCCOC[n+]1ccn(C)c1.O=S(=O)([N-]S(=O)(=O)C(F)(F)F)C(F)(F)F, in that order: 0.68 ± 0.05, 0.69 ± 0.05 and 0.72 ± 0.05.
Turning to `ClCCl` [dichloromethane] + Cn1cc[n+](COCCCOC[n+]2ccn(C)c2)c1.N#C[N-]C#N.N#C[N-]C#N, the activity coefficient was determined as 0.73 ± 0.05 (323.15 K), 0.8 ± 0.05 (333.15 K) and 0.86 ± 0.06 (343.15 K).
With `C#CCCCC` [1-hexyne] + N#C[N-]C#N.N#C[N-]C#N.c1ccc(Cn2cc[n+](COCCCOC[n+]3ccn(Cc4ccccc4)c3)c2)cc1, the activity coefficient (323.15 K) turned out to be 14.1 ± 0.96 and the activity coefficient (333.15 K) was found to be 11.7 ± 0.8.
In the case of `CCCCCCCCCC` [decane] + N#C[N-]C#N.N#C[N-]C#N.c1ccc(Cn2cc[n+](COCCCOC[n+]3ccn(Cc4ccccc4)c3)c2)cc1, the activity coefficient is, setting by setting: (323.15 K) 420 ± 29; (333.15 K) 371 ± 25; (343.15 K) 321 ± 22.
On the same counts, the results for `CCCCO` [butan-1-ol] + CCCOC[n+]1ccn(C)c1.F[B-](F)(F)F are 4.61 ± 0.31, 4.17 ± 0.28 and 3.76 ± 0.26.
Consider `CC1CCCC1` [methylcyclopentane] + CCCCCCCCn1cc[n+](COCCCOC[n+]2ccn(CCCCCCCC)c2C)c1C.O=S(=O)([N-]S(=O)(=O)C(F)(F)F)C(F)(F)F.O=S(=O)([N-]S(=O)(=O)C(F)(F)F)C(F)(F)F, for which the activity coefficient (323.15 K) was 2.52 ± 0.17, the activity coefficient (333.15 K) amounted to 2.23 ± 0.15 and the activity coefficient (343.15 K) amounted to 2.17 ± 0.15.
`C1COCCO1` [1,4-dioxane] + Cn1cc[n+](COCCCOC[n+]2ccn(C)c2)c1.O=S(=O)([N-]S(=O)(=O)C(F)(F)F)C(F)(F)F.O=S(=O)([N-]S(=O)(=O)C(F)(F)F)C(F)(F)F: the activity coefficient reads like this: (323.15 K) 0.37 ± 0.03; (333.15 K) 0.39 ± 0.03; (343.15 K) 0.39 ± 0.03.
In the case of `CCc1ccccc1` [ethylbenzene] + CCCOC[n+]1ccc(N(C)C)cc1.O=S(=O)([N-]S(=O)(=O)C(F)(F)F)C(F)(F)F, the activity coefficient runs as follows: (323.15 K) 1.45 ± 0.1; (333.15 K) 1.53 ± 0.1; (343.15 K) 1.53 ± 0.1.
In the case of `CCCCCCCCC` [nonane] + CCCOC[n+]1ccn(Cc2ccccc2)c1.O=S(=O)([N-]S(=O)(=O)C(F)(F)F)C(F)(F)F, the activity coefficient (323.15 K) stood at 23.3 ± 1.6, the activity coefficient (333.15 K) came out at 19.1 ± 1.3 and the activity coefficient (343.15 K) turned out to be 17.5 ± 1.2.
On the same counts, the results for `CCCCCCCCCCCCC` [tridecane] + CCCOC[n+]1ccc(N(C)C)cc1.O=S(=O)([N-]S(=O)(=O)C(F)(F)F)C(F)(F)F are 102 ± 7, 96.4 ± 6.6 and 81.9 ± 5.6.
For `C[N+](=O)[O-]` [nitromethane] + Cn1cc[n+](COCCCOC[n+]2ccn(C)c2)c1.O=S(=O)([N-]S(=O)(=O)C(F)(F)F)C(F)(F)F.O=S(=O)([N-]S(=O)(=O)C(F)(F)F)C(F)(F)F, in that order: 0.31 ± 0.03, 0.31 ± 0.03 and 0.29 ± 0.03.
